Results as given in ChEMBL document CHEMBL1201862, “PubChem BioAssay data set” (2004).
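1) Cells in 96-well plates. 2) Compound, 48 h, 5 concentrations. 3) Linear interpolation between surrounding doses. 4) Unreached endpoint = highest concentration. GI50 = concentration required for 50% inhibition of growth.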 Activity calls are given as the source filed them. Rule as the data show it: active = GI50 up to about 1.1 µM and inactive = higher.

What was measured:
Test in all cases: growth of human tumour cells (NCI), 48 h
UACC-257 = test system: UACC-257
HOP-92 = test system: HOP-92
COLO 205 = test system: COLO 205
OVCAR-5 = test system: OVCAR-5
IGROV-1 = test system: IGROV-1
A498 = test system: A498
NCI-H23 = test system: NCI-H23
786-0 = test system: 786-0
RXF 393 = test system: RXF 393
SNB-19 = test system: SNB-19
KM12 = test system: KM12
NCI/ADR-RES = test system: NCI/ADR-RES
Hs-578T = test system: Hs-578T
SN12C = test system: SN12C
A549 = test system: A549
ACHN = test system: ACHN

Compound: CCNc1cc2c(cc1O)CC[C@@H]1[C@@H]2CC[C@]2(C)[C@@H](O)CC[C@@H]12
- GI50 (UACC-257): 11.8 µM (inactive)
- GI50 (HOP-92): 10.3 µM (inactive)
- GI50 (COLO 205): 14.4 µM (inactive)
- GI50 (OVCAR-5): 20.3 µM (inactive)
- GI50 (IGROV-1): 15.5 µM (inactive)
- GI50 (A498): 1.7 µM (inactive)
- GI50 (NCI-H23): 12.9 µM (inactive)
- GI50 (786-0): 9.91 µM (inactive)
- GI50 (RXF 393): 3.53 µM (inactive)
- GI50 (SNB-19): 0.82 µM (active)
- GI50 (KM12): 9.04 µM (inactive)
- GI50 (NCI/ADR-RES): 1.04 µM (active)
- GI50 (Hs-578T): 3.62 µM (inactive)
- GI50 (SN12C): 15.3 µM (inactive)
- GI50 (A549): 2.32 µM (inactive)
- GI50 (ACHN): 8.83 µM (inactive)

Compound: COc1ccc(-c2nc(SCC(=O)N/N=C/c3ccc([N+](=O)[O-])cc3)[nH]c2-c2ccc(OC)cc2)cc1
- GI50 (UACC-257): 16.4 µM (inactive)
- GI50 (HOP-92): 12.6 µM (inactive)
- GI50 (COLO 205): 2.23 µM (inactive)
- GI50 (OVCAR-5): 16.2 µM (inactive)
- GI50 (IGROV-1): 10.8 µM (inactive)
- GI50 (A498): 14.3 µM (inactive)
- GI50 (NCI-H23): 21.9 µM (inactive)
- GI50 (786-0): 20 µM (inactive)
- GI50 (RXF 393): 11.4 µM (inactive)
- GI50 (SNB-19): 24.4 µM (inactive)
- GI50 (KM12): 4.86 µM (inactive)
- GI50 (NCI/ADR-RES): 19.1 µM (inactive)
- GI50 (Hs-578T): 14.4 µM (inactive)
- GI50 (SN12C): 16.6 µM (inactive)
- GI50 (A549): 6.95 µM (inactive)
- GI50 (ACHN): 20.1 µM (inactive)

Compound: C=CCN1CN(C2CCCCC2)CSC1=S
- GI50 (UACC-257): 3.68 µM (inactive)
- GI50 (HOP-92): 5.18 µM (inactive)
- GI50 (COLO 205): 3.32 µM (inactive)
- GI50 (OVCAR-5): 9.08 µM (inactive)
- GI50 (IGROV-1): 8.34 µM (inactive)
- GI50 (A498): 14.3 µM (inactive)
- GI50 (NCI-H23): 8.28 µM (inactive)
- GI50 (786-0): 3.27 µM (inactive)
- GI50 (RXF 393): 4.04 µM (inactive)
- GI50 (SNB-19): 16.9 µM (inactive)
- GI50 (KM12): 3.19 µM (inactive)
- GI50 (NCI/ADR-RES): 8.83 µM (inactive)
- GI50 (Hs-578T): 4.94 µM (inactive)
- GI50 (SN12C): 6.84 µM (inactive)
- GI50 (A549): 16.5 µM (inactive)
- GI50 (ACHN): 4.02 µM (inactive)

Compound: N#Cc1cc(C#N)c(N)nc1N
- GI50 (UACC-257): > 100 µM (inactive)
- GI50 (HOP-92): > 100 µM (inactive)
- GI50 (COLO 205): > 100 µM (inactive)
- GI50 (OVCAR-5): > 100 µM (inactive)
- GI50 (IGROV-1): > 100 µM (inactive)
- GI50 (A498): > 100 µM (inactive)
- GI50 (NCI-H23): > 100 µM (inactive)
- GI50 (786-0): > 100 µM (inactive)
- GI50 (RXF 393): > 100 µM (inactive)
- GI50 (SNB-19): > 100 µM (inactive)
- GI50 (KM12): > 100 µM (inactive)
- GI50 (NCI/ADR-RES): > 100 µM (inactive)
- GI50 (Hs-578T): > 100 µM (inactive)
- GI50 (SN12C): > 100 µM (inactive)
- GI50 (A549): > 100 µM (inactive)
- GI50 (ACHN): > 100 µM (inactive)

Compound: CC(=O)Nc1ccc2cc(C)c(O)nc2n1
- GI50 (UACC-257): > 100 µM (inactive)
- GI50 (HOP-92): 54.2 µM (inactive)
- GI50 (COLO 205): > 100 µM (inactive)
- GI50 (OVCAR-5): > 100 µM (inactive)
- GI50 (IGROV-1): > 100 µM (inactive)
- GI50 (A498): > 100 µM (inactive)
- GI50 (NCI-H23): > 100 µM (inactive)
- GI50 (786-0): 52.1 µM (inactive)
- GI50 (RXF 393): 25.9 µM (inactive)
- GI50 (SNB-19): > 100 µM (inactive)
- GI50 (KM12): > 100 µM (inactive)
- GI50 (NCI/ADR-RES): 8.09 µM (inactive)
- GI50 (Hs-578T): 85.7 µM (inactive)
- GI50 (SN12C): > 100 µM (inactive)
- GI50 (A549): > 100 µM (inactive)
- GI50 (ACHN): > 100 µM (inactive)

Compound: CC(C)CCCC(C)[C@H]1CCC2[C@@H]3CCC4Cc5nc6c(nc5C[C@]4(C)C3CC[C@@]21C)CC1CC[C@@H]2C(CC[C@@]3(C)C2CC[C@@H]3C(C)CCCC(C)C)[C@@]1(C)C6 (stereo partly drawn)
- GI50 (UACC-257): > 100 µM (inactive)
- GI50 (HOP-92): > 100 µM (inactive)
- GI50 (COLO 205): > 100 µM (inactive)
- GI50 (OVCAR-5): > 100 µM (inactive)
- GI50 (IGROV-1): > 100 µM (inactive)
- GI50 (A498): > 100 µM (inactive)
- GI50 (NCI-H23): > 100 µM (inactive)
- GI50 (786-0): > 100 µM (inactive)
- GI50 (RXF 393): > 100 µM (inactive)
- GI50 (SNB-19): > 100 µM (inactive)
- GI50 (KM12): > 100 µM (inactive)
- GI50 (NCI/ADR-RES): > 100 µM (inactive)
- GI50 (Hs-578T): > 100 µM (inactive)
- GI50 (SN12C): > 100 µM (inactive)
- GI50 (A549): > 100 µM (inactive)
- GI50 (ACHN): > 100 µM (inactive)

Compound: C=C1CC2(CCCC3(CC(=C)C(=O)O3)C2(C)C)OC1=O (stereo not drawn)
- GI50 (UACC-257): 1.85 µM (inactive)
- GI50 (HOP-92): 5.85 µM (inactive)
- GI50 (COLO 205): 2.21 µM (inactive)
- GI50 (OVCAR-5): 1.58 µM (inactive)
- GI50 (IGROV-1): 8.83 µM (inactive)
- GI50 (A498): 21.4 µM (inactive)
- GI50 (NCI-H23): 2.89 µM (inactive)
- GI50 (786-0): 1.81 µM (inactive)
- GI50 (RXF 393): 3.86 µM (inactive)
- GI50 (SNB-19): 17.3 µM (inactive)
- GI50 (KM12): 8.11 µM (inactive)
- GI50 (NCI/ADR-RES): 13.2 µM (inactive)
- GI50 (Hs-578T): 20.8 µM (inactive)
- GI50 (SN12C): 3.03 µM (inactive)
- GI50 (A549): 13.8 µM (inactive)
- GI50 (ACHN): 1.07 µM (active)

Compound: C[C@@]12C[C@@H](c3ccccc3O1)N1CCCCSC1=N2
- GI50 (UACC-257): > 100 µM (inactive)
- GI50 (HOP-92): > 100 µM (inactive)
- GI50 (COLO 205): > 100 µM (inactive)
- GI50 (OVCAR-5): > 100 µM (inactive)
- GI50 (IGROV-1): > 100 µM (inactive)
- GI50 (A498): > 100 µM (inactive)
- GI50 (NCI-H23): > 100 µM (inactive)
- GI50 (786-0): > 100 µM (inactive)
- GI50 (RXF 393): > 100 µM (inactive)
- GI50 (SNB-19): > 100 µM (inactive)
- GI50 (KM12): > 100 µM (inactive)
- GI50 (NCI/ADR-RES): > 100 µM (inactive)
- GI50 (Hs-578T): > 100 µM (inactive)
- GI50 (SN12C): > 100 µM (inactive)
- GI50 (ACHN): > 100 µM (inactive)

Compound: Nc1nc2c(ncn2Cc2ccc(CO)cc2)c(=O)[nH]1
- GI50 (UACC-257): > 100 µM (inactive)
- GI50 (HOP-92): > 100 µM (inactive)
- GI50 (COLO 205): > 100 µM (inactive)
- GI50 (OVCAR-5): > 100 µM (inactive)
- GI50 (IGROV-1): > 100 µM (inactive)
- GI50 (A498): > 100 µM (inactive)
- GI50 (NCI-H23): > 100 µM (inactive)
- GI50 (786-0): > 100 µM (inactive)
- GI50 (RXF 393): > 100 µM (inactive)
- GI50 (SNB-19): > 100 µM (inactive)
- GI50 (KM12): > 100 µM (inactive)
- GI50 (NCI/ADR-RES): > 100 µM (inactive)
- GI50 (Hs-578T): > 100 µM (inactive)
- GI50 (SN12C): > 100 µM (inactive)
- GI50 (A549): > 100 µM (inactive)
- GI50 (ACHN): > 100 µM (inactive)
